Measured values as given in US12459918B2, “Isoquinolinone derivatives serving as rock protein kinase inhibitors and use thereof” (GUANGZHOU OCUSUN OPHTHALMIC BIOTECHNOLOGY CO., LTD., priority 2019, dated 2025).

Experiments:
[1] = system: New Zealand rabbits with normal intraocular pressure; assay: Reduction of intraocular pressure by repeated eye-drop administration for 14 days, experiment operation 1; assay type: in vivo; settings: for Change of intraocular pressure: negative control minus group
Text: Experimental example 4. Experiment on reduction of intraocular pressure and ocular toxicity of New Zealand rabbits with normal intraocular pressure by repeated eye-drop administration for 14 days
The intraocular pressure reduction action and the potential ocular toxicity of compound 63 were explored by 14 days of repeated eye-drop administration in rabbits with normal intraocular pressure.
Male New Zealand rabbits, aged 97-127 days, weighted 2.6-3.5 kg, purchased from PizhouDongfang Breeding Co. Ltd.
The male New Zealand rabbits were randomly divided into 7 groups, with 6 rabbits per group. Animals were randomly divided according to body weight Animals in 1-7 groups were eye-dropped with solvent/control sample/test sample in both eyes, the volume of the administration was all 50 μL/eye, once per day for 14 consecutive days, and the day of the administration was recorded as Day 1. On Day 1, intraocular pressure of the animals was measured before the administration and in 1, 2, 4, 6, 8 and 10 hours after the administration, respectively; on Days 2-14, intraocular pressure of the animals was measured in 1 hour after daily administration for the group administered with K-115, and intraocular pressure of the animal was measured in 4 hours after daily administration for the other groups.

[2] = system: New Zealand rabbits with normal intraocular pressure; assay: Ocular stimulation response examination by hand-held slit lamp, 14 days eye-drop administration; assay type: in vivo; settings: concentration range of 0.25-4 mg/mL, 14 consecutive days, 50 μL/eye/day
Experimental: 42 male New Zealand rabbits were randomly divided into 7 groups, with 6 rabbits per group. Animals were randomly divided according to body weight Animals in 1-7 groups were eye-dropped with normal saline in the left eye and with solvent/control sample/test sample in the right eye respectively by a volume of 50 μL/eye, once per day for 14 consecutive days, and the day of administration was recorded as Day 1. The intraocular pressure of the animals was measured before Day 1 administration and in 1, 2, 4, 6, 8 and 10 hours after Day 1 administration, respectively (Table 8).
Before the experiment (Day 2/Day 1), before daily administration during the administration (Days 1-14), and in 1, 2, 4, 24, 48 and 72 hours after the last administration (Day 14), the eyes of animals were examined for ocular stimulation response and fluorescein sodium by a hand-held slit lamp (scoring by referring to the scoring criteria).
Before the experiment (Day 2/Day 1), before the first daily administration (Days 1-14) during the administration, and in 1, 2, 4, 24, 48 and 72 hours after the last administration, the eyes of animals were examined for ocular stimulation response by a hand-held slit lamp. The scoring criteria were as follows. […]

[3] = 4.0 mg/mL once per day, Day 2, 4 hours after daily administration
[4] = 4.0 mg/mL once per day, Day 3, 4 hours after daily administration
[5] = 4.0 mg/mL once per day, Day 4, 4 hours after daily administration
[6] = 4.0 mg/mL once per day, Day 5, 4 hours after daily administration
[7] = 4.0 mg/mL once per day, Day 6, 4 hours after daily administration
[8] = 4.0 mg/mL once per day, Day 7, 4 hours after daily administration
[9] = 8.0 mg/mL once per day, Day 2, 4 hours after daily administration
[10] = 8.0 mg/mL once per day, Day 3, 4 hours after daily administration
[11] = 8.0 mg/mL once per day, Day 4, 4 hours after daily administration
[12] = 8.0 mg/mL once per day, Day 5, 4 hours after daily administration
[13] = 8.0 mg/mL once per day, Day 6, 4 hours after daily administration
[14] = 8.0 mg/mL once per day, Day 7, 4 hours after daily administration

Evaluation of ocular stimulation [2]: no stimulation
SMILES: Cc1ccc(C(=O)OCn2cc(C)c3c(S(=O)(=O)N4CC[C@H](N)C4)cccc3c2=O)c(C)c1 [Compound 63]
Change of intraocular pressure ([1]; 2.0 mg/mL once per day, Day 7, 4 hours after daily administration): 4.28 mmHg
Change of intraocular pressure ([1]; 2.0 mg/mL once per day, Day 8, 4 hours after daily administration): 4.53 mmHg
Change of intraocular pressure ([1]; 2.0 mg/mL once per day, Day 9, 4 hours after daily administration): 3.72 mmHg
Change of intraocular pressure ([1]; 2.0 mg/mL once per day, Day 10, 4 hours after daily administration): 3.81 mmHg
Change of intraocular pressure ([1]; 2.0 mg/mL once per day, Day 11, 4 hours after daily administration): 3.66 mmHg
Change of intraocular pressure ([1]; 2.0 mg/mL once per day, Day 12, 4 hours after daily administration): 3.5 mmHg
Change of intraocular pressure ([1]; 2.0 mg/mL once per day, Day 13, 4 hours after daily administration): 4.28 mmHg
Change of intraocular pressure ([1]; 2.0 mg/mL once per day, Day 14, 4 hours after daily administration): 3.91 mmHg
Change of intraocular pressure ([1]; 2.0 mg/mL, Day 1, 1 hour after administration): 1.75 mmHg
Change of intraocular pressure ([1]; 2.0 mg/mL, Day 1, 2 hours after administration): 3.5 mmHg
Change of intraocular pressure ([1]; 2.0 mg/mL, Day 1, 4 hours after administration): 3.84 mmHg
Change of intraocular pressure ([1]; 2.0 mg/mL, Day 1, 6 hours after administration): 4.69 mmHg
Change of intraocular pressure ([1]; 2.0 mg/mL, Day 1, 8 hours after administration): 4.53 mmHg
Change of intraocular pressure ([1]; 2.0 mg/mL, Day 1, 10 hours after administration): 4.75 mmHg
Change of intraocular pressure ([1]; 2.0 mg/mL, Day 1, before administration): 0.22 mmHg
Mean intraocular pressure of both eyes ([1]; 4 mg/mL both eyes, Day 1, 1 hour after administration): 10.44 mmHg
Mean intraocular pressure of both eyes ([1]; 4 mg/mL both eyes, Day 1, 2 hours after administration): 7.81 mmHg
Mean intraocular pressure of both eyes ([1]; 4 mg/mL both eyes, Day 1, 4 hours after administration): 6.47 mmHg
Mean intraocular pressure of both eyes ([1]; 4 mg/mL both eyes, Day 1, 6 hours after administration): 6.22 mmHg
Mean intraocular pressure of both eyes ([1]; 4 mg/mL both eyes, Day 1, 8 hours after administration): 7.33 mmHg
Mean intraocular pressure of both eyes ([1]; 4 mg/mL both eyes, Day 1, 10 hours after administration): 8.64 mmHg
Mean intraocular pressure of both eyes ([1]; 4 mg/mL both eyes, Day 1, before administration): 9.67 mmHg
Mean intraocular pressure of both eyes [1, 3]: 6.53 mmHg
Change of intraocular pressure [1, 3]: 4.55 mmHg
Mean intraocular pressure of both eyes [1, 4]: 5.58 mmHg
Change of intraocular pressure [1, 4]: 4.81 mmHg
Mean intraocular pressure of both eyes [1, 5]: 5.53 mmHg
Change of intraocular pressure [1, 5]: 5.08 mmHg
Mean intraocular pressure of both eyes [1, 6]: 6.61 mmHg
Change of intraocular pressure [1, 6]: 4.36 mmHg
Mean intraocular pressure of both eyes [1, 7]: 5.47 mmHg
Change of intraocular pressure [1, 7]: 3.84 mmHg
Mean intraocular pressure of both eyes [1, 8]: 5.56 mmHg
Change of intraocular pressure [1, 8]: 4.5 mmHg
Change of intraocular pressure ([1]; 4.0 mg/mL once per day, Day 8, 4 hours after daily administration): 4.53 mmHg
Change of intraocular pressure ([1]; 4.0 mg/mL once per day, Day 9, 4 hours after daily administration): 3.97 mmHg
Change of intraocular pressure ([1]; 4.0 mg/mL once per day, Day 10, 4 hours after daily administration): 4.67 mmHg
Change of intraocular pressure ([1]; 4.0 mg/mL once per day, Day 11, 4 hours after daily administration): 3.86 mmHg
Change of intraocular pressure ([1]; 4.0 mg/mL once per day, Day 12, 4 hours after daily administration): 3.64 mmHg
Change of intraocular pressure ([1]; 4.0 mg/mL once per day, Day 13, 4 hours after daily administration): 4.36 mmHg
Change of intraocular pressure ([1]; 4.0 mg/mL once per day, Day 14, 4 hours after daily administration): 4.64 mmHg
Change of intraocular pressure ([1]; 4 mg/mL, Day 1, 1 hour after administration): −0.13 mmHg
Change of intraocular pressure ([1]; 4 mg/mL, Day 1, 2 hours after administration): 3.16 mmHg
Change of intraocular pressure ([1]; 4 mg/mL, Day 1, 4 hours after administration): 4.84 mmHg
Change of intraocular pressure ([1]; 4 mg/mL, Day 1, 6 hours after administration): 5.72 mmHg
Change of intraocular pressure ([1]; 4 mg/mL, Day 1, 8 hours after administration): 5.64 mmHg
Change of intraocular pressure ([1]; 4 mg/mL, Day 1, 10 hours after administration): 5.78 mmHg
Change of intraocular pressure ([1]; 4 mg/mL, Day 1, before administration): 0.22 mmHg
Mean intraocular pressure of both eyes ([1]; 8.0 mg/mL both eyes, Day 1, 1 hour after administration): 7.69 mmHg
Mean intraocular pressure of both eyes ([1]; 8.0 mg/mL both eyes, Day 1, 2 hours after administration): 6.39 mmHg
Mean intraocular pressure of both eyes ([1]; 8.0 mg/mL both eyes, Day 1, 4 hours after administration): 7.06 mmHg
Mean intraocular pressure of both eyes ([1]; 8.0 mg/mL both eyes, Day 1, 6 hours after administration): 7.11 mmHg
Mean intraocular pressure of both eyes ([1]; 8.0 mg/mL both eyes, Day 1, 8 hours after administration): 7.22 mmHg
Mean intraocular pressure of both eyes ([1]; 8.0 mg/mL both eyes, Day 1, 10 hours after administration): 7.97 mmHg
Mean intraocular pressure of both eyes ([1]; 8.0 mg/mL both eyes, Day 1, before administration): 10.17 mmHg
Mean intraocular pressure of both eyes [1, 9]: 6.33 mmHg
Change of intraocular pressure [1, 9]: 4.75 mmHg
Mean intraocular pressure of both eyes [1, 10]: 5.78 mmHg
Change of intraocular pressure [1, 10]: 4.61 mmHg
Mean intraocular pressure of both eyes [1, 11]: 5.97 mmHg
Change of intraocular pressure [1, 11]: 4.64 mmHg
Mean intraocular pressure of both eyes [1, 12]: 6.42 mmHg
Change of intraocular pressure [1, 12]: 4.55 mmHg
Mean intraocular pressure of both eyes [1, 13]: 5.56 mmHg
Change of intraocular pressure [1, 13]: 3.75 mmHg
Mean intraocular pressure of both eyes [1, 14]: 5.28 mmHg
Change of intraocular pressure [1, 14]: 4.78 mmHg
Change of intraocular pressure ([1]; 8.0 mg/mL once per day, Day 8, 4 hours after daily administration): 5.59 mmHg
Change of intraocular pressure ([1]; 8.0 mg/mL once per day, Day 9, 4 hours after daily administration): 4.25 mmHg
Change of intraocular pressure ([1]; 8.0 mg/mL once per day, Day 10, 4 hours after daily administration): 4.19 mmHg
Change of intraocular pressure ([1]; 8.0 mg/mL once per day, Day 11, 4 hours after daily administration): 4.16 mmHg
Change of intraocular pressure ([1]; 8.0 mg/mL once per day, Day 12, 4 hours after daily administration): 3.97 mmHg
Change of intraocular pressure ([1]; 8.0 mg/mL once per day, Day 13, 4 hours after daily administration): 4.72 mmHg
Change of intraocular pressure ([1]; 8.0 mg/mL once per day, Day 14, 4 hours after daily administration): 4.03 mmHg
Change of intraocular pressure ([1]; 8.0 mg/mL, Day 1, 1 hour after administration): 2.62 mmHg
Change of intraocular pressure ([1]; 8.0 mg/mL, Day 1, 2 hours after administration): 4.58 mmHg
Change of intraocular pressure ([1]; 8.0 mg/mL, Day 1, 4 hours after administration): 4.25 mmHg
Change of intraocular pressure ([1]; 8.0 mg/mL, Day 1, 6 hours after administration): 4.83 mmHg
Change of intraocular pressure ([1]; 8.0 mg/mL, Day 1, 8 hours after administration): 5.75 mmHg
Change of intraocular pressure ([1]; 8.0 mg/mL, Day 1, 10 hours after administration): 6.45 mmHg
Change of intraocular pressure ([1]; 8.0 mg/mL, Day 1, before administration): −0.28 mmHg
Efficacy of a single dose (highest hypotensive effect and action duration) ([1]; all test doses (0.5-8.0 mg/mL), compared with K-115): superior efficacy
Hypotensive effect after 14 days of continuous administration ([1]; dose of 0.5 mg/mL): maintain a significant hypotensive effect
